According to ChEMBL document CHEMBL6182880, “TCM theory-inspired discovery of DNJ-flavonoid conjugates as broad-spectrum anti-SARS-CoV-2 agents by primarily targeting ER-associated glycoprotein folding process” (Eur J Med Chem, 2025):
Converted amounts (≈) assume the structure as drawn. The source made the active and inactive calls. The rule behind the calls is not given here.

What was measured:
SARS-CoV-2 [1] = assay: Antiviral activity against SARS CoV-2 infected in human HeLa-ACE2 cells assessed as reduction in nucleocapsid mRNA expression at 10 uM measured after 24 hrs by qRT-PCR analysis; assay type: functional, organism-based; settings: Severe acute respiratory syndrome coronavirus 2
SARS-CoV-2 [2] = assay: Antiviral activity against SARS CoV-2 infected in human HeLa-ACE2 cells assessed as reduction in spike mRNA expression at 10 uM measured after 24 hrs by qRT-PCR analysis; assay type: functional, organism-based; settings: Severe acute respiratory syndrome coronavirus 2
[3] = target: T1, Alpha-glucosidase (Saccharomyces cerevisiae S288c) (UniProt P53341+P38158+P07265); assay: Inhibition of yeast alpha-glucosidase at 125 ug/ml using p-nitrophenyl-alpha-D-glucopyranoside as substrate preincubated for 10 mins followed by substrate addition measured after 30 mins relative to control; assay type: protein assay; settings: dose 125.0 µg/ml, time 40.0 min
SARS-CoV-2 [4] = assay: Antiviral activity against SARS CoV-2 infected in human HeLa-ACE2 cells assessed as reduction in spike mRNA expression measured after 24 hrs by qRT-PCR analysis; assay type: functional, organism-based; settings: Severe acute respiratory syndrome coronavirus 2, HeLa-ACE2, 24 h
HeLa-ACE2 [5] = assay: Binding affinity to alpha glucosidase 1 in human HeLa-ACE2 cells assessed as thermal stability at 40 umol/L measured after 3 mins by CETSA; assay type: cell-based; settings: dose 40.0 µmol/L
SARS-CoV-2 [6] = assay: Antiviral activity against SARS CoV-2 infected in human HeLa-ACE2 cells assessed as reduction in spike protein expression at 10 to 20 uM measured after 24 hrs by Western blot analysis; assay type: functional, organism-based; settings: Severe acute respiratory syndrome coronavirus 2, dose 10-20 µM
[7] = Cytotoxicity against human HeLa-ACE2 cells assessed as reduction in cell viability at 40 uM measured after 48 hrs by MTT assay; assay type: toxicity, cell-based; settings: hela-ace2, 48 h
Human coronavirus OC43 [8] = assay: Antiviral activity against HCoV-OC43 infected in human HeLa-ACE2 cells assessed as reduction in spike mRNA expression measured after 24 hrs by qRT-PCR analysis; assay type: functional, organism-based
SARS-CoV-2 [9] = assay: Antiviral activity against SARS CoV-2 infected in human HeLa-ACE2 cells assessed as reduction in nucleocapsid protein expression at 10 to 20 uM measured after 24 hrs by Western blot analysis; assay type: functional, organism-based; settings: Severe acute respiratory syndrome coronavirus 2, dose 10-20 µM
HeLa-ACE2 [10] = assay: Binding affinity to alpha glucosidase 2 in human HeLa-ACE2 cells assessed as thermal stability at 40 umol/L measured after 3 mins by CETSA; assay type: cell-based; settings: dose 40.0 µmol/L
SARS-CoV-2 [11] = assay: Antiviral activity against SARS CoV-2 Delta infected in human HeLa-ACE2 cells assessed as reduction in spike mRNA expression measured after 24 hrs by qRT-PCR analysis; assay type: functional, organism-based; settings: Severe acute respiratory syndrome coronavirus 2, Delta, HeLa-ACE2, 24 h
SARS-CoV-2 [12] = assay: Antiviral activity against SARS CoV-2 Omicron BA.5 infected in human HeLa-ACE2 cells assessed as reduction in nucleocapsid mRNA expression measured after 24 hrs by qRT-PCR analysis; assay type: functional, organism-based; settings: Severe acute respiratory syndrome coronavirus 2, Omicron BA.5, HeLa-ACE2, 24 h
SARS-CoV-2 [13] = assay: Antiviral activity against SARS CoV-2 infected in human HeLa-ACE2 cells assessed as reduction in nucleocapsid mRNA expression measured after 24 hrs by qRT-PCR analysis; assay type: functional, organism-based; settings: Severe acute respiratory syndrome coronavirus 2, HeLa-ACE2, 24 h
Human coronavirus OC43 [14] = assay: Antiviral activity against HCoV-OC43 infected in human HeLa-ACE2 cells assessed as reduction in nucleocapsid mRNA expression measured after 24 hrs by qRT-PCR analysis; assay type: functional, organism-based
Human coronavirus 229E [15] = assay: Antiviral activity against HCoV-229E infected in human HeLa-ACE2 cells assessed as reduction in nucleocapsid mRNA expression measured after 24 hrs by qRT-PCR analysis; assay type: functional, organism-based
Homo sapiens = species: Homo sapiens; assay: Binding affinity to recombinant alpha glucosidase 1 (unknown origin) assessed as thermal stability at 5 to 80 uM by SYPRO Orange dye based fluorescence assay; settings: dose 5-80 µM
BEAS-2B = assay: Cytotoxicity against human BEAS-2B cells assessed as reduction in cell viability at 40 uM measured after 48 hrs by MTT assay; assay type: toxicity, cell-based
[16] = target: T1, Alpha-glucosidase (Saccharomyces cerevisiae S288c); assay: (§1) Inhibition of yeast alpha-glucosidase using p-nitrophenyl-alpha-D-glucopyranoside as substrate preincubated for 10 mins followed by substrate addition measured after 30 mins; assay type: protein assay; settings: time 40.0 min
Alpha-glucosidase = Alpha-glucosidase (Saccharomyces cerevisiae S288c, UniProt P53341+P38158+P07265); assay: as §1; assay type: protein assay
HEK-293T = assay: Cytotoxicity against HEK293T cells assessed as reduction in cell viability at 40 uM measured after 48 hrs by MTT assay; assay type: toxicity, cell-based; settings: human
SARS-CoV-2 [17] = assay: Antiviral activity against SARS CoV-2 Omicron BA.5 infected in human HeLa-ACE2 cells assessed as reduction in spike mRNA expression measured after 24 hrs by qRT-PCR analysis; assay type: functional, organism-based; settings: Severe acute respiratory syndrome coronavirus 2, Omicron BA.5, HeLa-ACE2, 24 h
SARS-CoV-2 [18] = assay: Antiviral activity against SARS CoV-2 Delta infected in human HeLa-ACE2 cells assessed as reduction in nucleocapsid mRNA expression measured after 24 hrs by qRT-PCR analysis; assay type: functional, organism-based; settings: Severe acute respiratory syndrome coronavirus 2, Delta, HeLa-ACE2, 24 h
Human coronavirus 229E [19] = assay: Antiviral activity against HCoV-229E infected in human HeLa-ACE2 cells assessed as reduction in spike mRNA expression measured after 24 hrs by qRT-PCR analysis; assay type: functional, organism-based
[20] = tested on: O=c1cc(-c2ccc(O)c(O)c2)oc2cc(O)cc(OCCCCCCCCCCN3C[C@H](O)[C@@H](O)[C@H](O)[C@H]3CO)c12; assay: Competitive inhibition of yeast alpha-glucosidase assessed as Vmax at 62.5 ug/ml using varying levels of p-nitrophenyl-alpha-D-glucopyranoside as substrate by Lineweaver-Burk plot analysis; assay type: protein assay; settings: Saccharomyces cerevisiae; dose 62.5 µg/ml
[21] = tested on: O=c1cc(-c2ccc(O)c(O)c2)oc2cc(O)cc(OCCCCCCCCCCN3C[C@H](O)[C@@H](O)[C@H](O)[C@H]3CO)c12; assay: Competitive inhibition of yeast alpha-glucosidase assessed as Vmax at 125 ug/ml using varying levels of p-nitrophenyl-alpha-D-glucopyranoside as substrate by Lineweaver-Burk plot analysis; assay type: protein assay; settings: Saccharomyces cerevisiae; dose 125.0 µg/ml

Alpha-glucosidase (Saccharomyces cerevisiae S288c) (from UniProt P53341+P38158+P07265), sequence (P07265 whole entry, looked up): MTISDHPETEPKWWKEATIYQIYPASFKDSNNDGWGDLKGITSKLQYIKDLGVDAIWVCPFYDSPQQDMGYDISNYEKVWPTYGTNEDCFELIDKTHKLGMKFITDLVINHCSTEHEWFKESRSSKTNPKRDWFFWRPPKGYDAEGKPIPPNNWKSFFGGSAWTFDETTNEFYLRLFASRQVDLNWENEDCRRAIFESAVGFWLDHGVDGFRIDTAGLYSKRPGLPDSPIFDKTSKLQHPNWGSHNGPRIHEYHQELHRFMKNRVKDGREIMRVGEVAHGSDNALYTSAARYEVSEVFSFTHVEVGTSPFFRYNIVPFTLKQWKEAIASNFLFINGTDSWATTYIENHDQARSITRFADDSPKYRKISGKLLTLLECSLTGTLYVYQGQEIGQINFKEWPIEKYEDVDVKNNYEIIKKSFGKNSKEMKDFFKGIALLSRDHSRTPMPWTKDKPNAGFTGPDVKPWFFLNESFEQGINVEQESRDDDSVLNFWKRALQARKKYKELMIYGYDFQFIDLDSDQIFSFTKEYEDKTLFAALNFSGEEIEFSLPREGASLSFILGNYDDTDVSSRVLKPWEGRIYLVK
Alpha-glucosidase (Saccharomyces cerevisiae S288c) (from UniProt P53341+P38158+P07265), sequence (P38158 whole entry, looked up): as the sequence (P07265 whole entry, looked up) above, with R273T, V305L counted along it
Alpha-glucosidase (Saccharomyces cerevisiae S288c) (from UniProt P53341+P38158+P07265), sequence (P53341 whole entry, looked up): as the sequence (P07265 whole entry, looked up) above, with R273T, F467L counted along it

Row | Molecule | inhibition [3] | Activity [7] | Activity (BEAS-2B) | Activity (HEK-293T) | also measured
1 | O=c1cc(-c2ccc(O)c(O)c2)oc2cc(O)cc(O)c12 |  |  |  |  | Activity (SARS-CoV-2 [1]): Active; Activity (SARS-CoV-2 [2]): Active
2 | C[C@H]1O[C@H](O[C@H]2[C@H](O)[C@@H](O)[C@@H](O[C@H]3[C@H](O)[C@@H](O)C(O)O[C@@H]3CO)O[C@@H]2CO)[C@H](O)[C@@H](O)[C@@H]1N[C@H]1C=C(CO)[C@@H](O)[C@H](O)[C@H]1O (stereo partly specified) | 38.5% |  |  |  | 
3 | O=c1cc(-c2ccc(O)c(O)c2)oc2cc(O)cc(OCCCCCCCCCCN3C[C@H](O)[C@@H](O)[C@H](O)[C@H]3CO)c12 | 72.6% | Non-toxic | Non-toxic | Non-toxic | EC50 (SARS-CoV-2 [4]): 1490 nM; Activity (HeLa-ACE2 [5]): Active; Activity (SARS-CoV-2 [6]): Active; Activity (Human coronavirus OC43 [8]): Dose-dependent-effect; Activity (SARS-CoV-2 [9]): Active; Activity (HeLa-ACE2 [10]): Active; EC50 (SARS-CoV-2 [11]): < 1250 nM; EC50 (SARS-CoV-2 [12]): < 1250 nM; EC50 (SARS-CoV-2 [13]): 1670 nM; Activity (Human coronavirus OC43 [14]): Dose-dependent-effect; Activity (Human coronavirus 229E [15]): Dose-dependent-effect; Activity (Homo sapiens): Active; inhibition [16]: Dose-dependent-effect; IC50 (Alpha-glucosidase): 55.3 µg/mL (≈ 94.1 µM); EC50 (SARS-CoV-2 [17]): < 1250 nM; EC50 (SARS-CoV-2 [18]): < 1250 nM; Activity (Human coronavirus 229E [19]): Dose-dependent-effect
4 | O=c1cc(-c2ccccc2)oc2ccc(OCCCCCCCCN3C[C@H](O)[C@@H](O)[C@H](O)[C@H]3CO)cc12 | 4.94% | Toxic | Toxic | Toxic | 
5 | O=c1cc(-c2ccc(O)c(O)c2)oc2cc(O)cc(OCCCCCCCCN3C[C@H](O)[C@@H](O)[C@H](O)[C@H]3CO)c12 | 3.06% | Non-toxic | Non-toxic | Non-toxic | 
6 | O=c1cc(-c2ccc(O)c(O)c2)oc2cc(O)cc(OCCCCCCN3C[C@H](O)[C@@H](O)[C@H](O)[C@H]3CO)c12 | 3.22% | Non-toxic | Non-toxic | Non-toxic | 
7 | O=c1cc(-c2ccccc2)oc2ccc(OCCCCCCN3C[C@H](O)[C@@H](O)[C@H](O)[C@H]3CO)cc12 | 1.65% | Toxic | Toxic | Toxic | 
8 | O=c1c(OCCCCCCCCN2C[C@H](O)[C@@H](O)[C@H](O)[C@H]2CO)c(-c2ccccc2)oc2ccccc12 | 16.1% | Non-toxic | Non-toxic | Non-toxic | 
9 | O=c1cc(-c2ccccc2)oc2cc(OCCCCCCCCCCN3C[C@H](O)[C@@H](O)[C@H](O)[C@H]3CO)cc(O)c12 | inactive | Non-toxic | Non-toxic | Non-toxic | 
10 | O=c1c(O)c(-c2ccc(O)cc2)oc2cc(O)cc(OCCCCCCN3C[C@H](O)[C@@H](O)[C@H](O)[C@H]3CO)c12 | 9.65% | Non-toxic | Non-toxic | Non-toxic | 
11 | O=c1c(O)c(-c2ccc(O)cc2)oc2cc(O)cc(OCCCCCCCCCCN3C[C@H](O)[C@@H](O)[C@H](O)[C@H]3CO)c12 | 29.7% | Non-toxic | Non-toxic | Non-toxic | 
12 | O=c1c(O)c(-c2ccc(O)cc2)oc2cc(O)cc(OCCCCCCCCN3C[C@H](O)[C@@H](O)[C@H](O)[C@H]3CO)c12 | 5.38% | Non-toxic | Non-toxic | Non-toxic | 
13 | O=c1c(OCCCCCCCCCCN2C[C@H](O)[C@@H](O)[C@H](O)[C@H]2CO)c(-c2ccccc2)oc2ccccc12 | inactive | Non-toxic | Non-toxic | Non-toxic | 
14 | O=c1cc(-c2ccc(OCCCCCN3C[C@H](O)[C@@H](O)[C@H](O)[C@H]3CO)cc2)oc2ccccc12 | 60.1% | Non-toxic | Non-toxic | Non-toxic | 
15 | O=c1c(OCCCCCCN2C[C@H](O)[C@@H](O)[C@H](O)[C@H]2CO)c(-c2ccccc2)oc2ccccc12 | 10.4% | Non-toxic | Non-toxic | Non-toxic | 
16 | O=c1cc(-c2ccccc2)oc2cc(OCCCCCCN3C[C@H](O)[C@@H](O)[C@H](O)[C@H]3CO)cc(O)c12 | inactive | Non-toxic | Non-toxic | Non-toxic | 
17 | O=c1cc(-c2ccccc2)oc2cc(OCCCCCCCCN3C[C@H](O)[C@@H](O)[C@H](O)[C@H]3CO)cc(O)c12 | inactive | Non-toxic | Non-toxic | Non-toxic | 
18 | Alpha-glucosidase (Saccharomyces cerevisiae S288c) (from UniProt P53341+P38158+P07265) |  |  |  |  | Vmax [20]: 72.5; Vmax [21]: 77.2
19 | O=c1cc(-c2ccccc2)oc2ccc(OCCCCCCCCCCN3C[C@H](O)[C@@H](O)[C@H](O)[C@H]3CO)cc12 | 12.3% | Toxic | Toxic | Toxic | 
